# “Also recorded” adds a separate entry of the source. Like-named read-outs stand apart in the source and are kept apart here.
# What was measured:
# [1] = set-up: method as in PMID 23813446; conditions: rats; cited from earlier work
# [2] = set-up: method as in PMID 23813446; conditions: dogs; cited from earlier work
# [3] = system: tumor necrosis factor α (TNFα); assay: Plasma TNFα ELISA; set-up: species or system human; conditions: in vivo
# Procedure: cIAP-1 levels were measured in tumor tissue and surrogate tissue as available. Peripheral blood mononuclear cells (PBMCs) were analyzed for DEBIO1143-induced cIAP-1 degradation. Plasma native cytokeratin-18 ([…]) or caspase-3 generated cytokeratin-18 fragments (M30), interleukin 8 (IL8), chemokine ligand 2 (CCL2, MCP1), and tumor necrosis factor α (TNFα) were measured by ELISA as markers of epithelial cell death and inflammation on days 1 (predose, 1, 3, 6, and 12 h postdose), 2, and 5. […] For the detection of cIAP-1 in paraffin-embedded human tissue, a validated immunohistochemical (IHC) assay was used. DEBIO1143-induced cIAP-1 degradation was measured in PBMCs using Western blot. Plasma biomarkers were measured through commercial ELISAs. All laboratory analyses were performed by MPI Research, Inc. (PK) and Mosaic Laboratory, LLC (PD).
# cIAP-1 [4] = biological target: T1, cIAP-1 (Homo sapiens, UniProt Q13490); assay: cIAP1 IHC in skin and tumor biopsies; assay type: in vivo
# T1 construct: endogenous in cells; host or cells: peripheral blood mononuclear cells (PBMCs) of patients
# T1 sequence (Q13490 whole entry): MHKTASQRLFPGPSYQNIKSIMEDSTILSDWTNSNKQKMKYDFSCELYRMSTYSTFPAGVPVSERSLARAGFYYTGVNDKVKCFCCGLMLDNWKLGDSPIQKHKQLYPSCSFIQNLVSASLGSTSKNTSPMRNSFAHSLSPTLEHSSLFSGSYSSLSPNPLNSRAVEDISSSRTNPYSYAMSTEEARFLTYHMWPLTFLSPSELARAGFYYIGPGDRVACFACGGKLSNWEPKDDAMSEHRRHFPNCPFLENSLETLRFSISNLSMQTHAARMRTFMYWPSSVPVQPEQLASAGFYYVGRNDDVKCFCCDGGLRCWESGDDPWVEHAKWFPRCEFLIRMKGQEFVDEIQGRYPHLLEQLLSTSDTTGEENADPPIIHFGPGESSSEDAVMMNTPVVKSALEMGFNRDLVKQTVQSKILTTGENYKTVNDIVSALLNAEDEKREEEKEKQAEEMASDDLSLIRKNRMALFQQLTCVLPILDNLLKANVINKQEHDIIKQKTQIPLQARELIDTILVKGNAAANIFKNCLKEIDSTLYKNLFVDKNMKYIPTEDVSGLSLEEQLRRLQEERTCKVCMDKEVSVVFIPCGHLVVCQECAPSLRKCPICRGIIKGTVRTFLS
# Procedure: (§1) Pharmacokinetic samples were taken from all patients on day 1 (predose, 0.5, 1, 2, 3, 4, 6, 8, 12, 18 h postdose) and on day 5 (predose, 0.5, 1, 2, 3, 4, 6, 8 h postdose) of the first cycle. In addition, for exploratory PD analysis of IAP inhibition and activation of apoptosis, optional skin and tumor biopsies were taken from consenting patients on days 1 (predose) and 5 and blood samples on day 1 (predose, 1, 3, 6, 8, 12 h postdose), day 2 (predose), and day 5 (3 h postdose).
# (§2) cIAP-1 levels were measured in tumor tissue and surrogate tissue as available. Peripheral blood mononuclear cells (PBMCs) were analyzed for DEBIO1143-induced cIAP-1 degradation. Plasma native cytokeratin-18 (M65) or caspase-3 generated cytokeratin-18 fragments (M30), interleukin 8 (IL8), chemokine ligand 2 (CCL2, MCP1), and tumor necrosis factor α (TNFα) were measured by ELISA as markers of epithelial cell death and inflammation on days 1 (predose, 1, 3, 6, and 12 h postdose), 2, and 5.
# (§3) For the detection of cIAP-1 in paraffin-embedded human tissue, a validated immunohistochemical (IHC) assay was used. DEBIO1143-induced cIAP-1 degradation was measured in PBMCs using Western blot. Plasma biomarkers were measured through commercial ELISAs. All laboratory analyses were performed by MPI Research, Inc. (PK) and Mosaic Laboratory, LLC (PD).
# [5] = system: various human cancer cell lines; set-up: method as in PMID 21264751, PMID 22669575; conditions: in vitro; cited from earlier work
# cIAP-1 [6] = system: cIAP-1; set-up: method as in PMID 21443232; conditions: cited from earlier work
# cIAP-1 [7] = biological target: T1, cIAP-1; assay: cIAP1 degradation in PBMCs, Western blot; assay type: in vivo
# Procedure: as §1, §2, §3
# xenograft tumors = conditions: cited from earlier work
# [8] = dogs; cited from earlier work
# [9] = set-up: method as in PMID 23813446; conditions: non-human primates; cited from earlier work
structure (smiles),measurement,setting,value
CN[C@@H](C)C(=O)N[C@H]1CN(C(=O)CC(C)C)CC[C@H]2CC[C@@H](C(=O)NC(c3ccccc3)c3ccccc3)N2C1=O [DEBIO1143],Oral bioavailability,[1],good
same,Oral bioavailability,[2],good
same,Patients with detectable TNFα showing some increase postdose,[3],four out of five
same,cIAP1 level in skin biopsies (IHC),cIAP-1 [4]; 12 patients,trend for a decrease
same,Immunoactivity of cIAP1 in tumor biopsy (IHC),"cIAP-1 [4]; melanoma patient, 120 mg/day, day 5, predose 150",130
same,Percentage of cIAP1-positive cells in tumor biopsies,"cIAP-1 [4]; melanoma patient, 400 mg/d",only negligible effect
same,Cell growth,[5],inhibit cell growth
same,cIAP-1 degradation,cIAP-1 [6],rapidly induced degradation of cIAP-1
same,"cIAP1/Actin in PBMC, mean (SD)","cIAP-1 [7]; 120 mg, 1h, N=1",2% (0) % from baseline
same,"cIAP1/Actin in PBMC, median (range)","cIAP-1 [7]; 120 mg, 1h, N=1",2 (2-2) % from baseline
same,"cIAP1/Actin in PBMC, mean (SD)","cIAP-1 [7]; 120 mg, 3h, N=1",2% (0) % from baseline
same,"cIAP1/Actin in PBMC, median (range)","cIAP-1 [7]; 120 mg, 3h, N=1",2 (2-2) % from baseline
same,"cIAP1/Actin in PBMC, mean (SD)","cIAP-1 [7]; 120 mg, 6h, N=1",4% (0) % from baseline
same,"cIAP1/Actin in PBMC, median (range)","cIAP-1 [7]; 120 mg, 6h, N=1",4 (4-4) % from baseline
same,"cIAP1/Actin in PBMC, mean (SD)","cIAP-1 [7]; 120 mg, 12h, N=1",3% (0) % from baseline
same,"cIAP1/Actin in PBMC, median (range)","cIAP-1 [7]; 120 mg, 12h, N=1",3 (3-3) % from baseline
same,"cIAP1/Actin in PBMC, mean (SD)","cIAP-1 [7]; 120 mg, 24h, N=1",4% (0) % from baseline
same,"cIAP1/Actin in PBMC, median (range)","cIAP-1 [7]; 120 mg, 24h, N=1",4 (4-4) % from baseline
same,"cIAP1/Actin in PBMC, mean (SD)","cIAP-1 [7]; 120 mg, 99h, N=1",5% (0) % from baseline
same,"cIAP1/Actin in PBMC, median (range)","cIAP-1 [7]; 120 mg, 99h, N=1",5 (5-5) % from baseline
same,"cIAP1/Actin in PBMC, mean (SD)","cIAP-1 [7]; 180 mg, 1h, N=6",34% (31) % from baseline
same,"cIAP1/Actin in PBMC, median (range)","cIAP-1 [7]; 180 mg, 1h, N=6",33 (0-78) % from baseline
same,"cIAP1/Actin in PBMC, mean (SD)","cIAP-1 [7]; 180 mg, 3h, N=6",20% (25) % from baseline
same,"cIAP1/Actin in PBMC, median (range)","cIAP-1 [7]; 180 mg, 3h, N=6",12 (3-68) % from baseline
same,"cIAP1/Actin in PBMC, mean (SD)","cIAP-1 [7]; 180 mg, 6h, N=7",6% (8) % from baseline
same,"cIAP1/Actin in PBMC, median (range)","cIAP-1 [7]; 180 mg, 6h, N=7",5 (0-24) % from baseline
same,"cIAP1/Actin in PBMC, mean (SD)","cIAP-1 [7]; 180 mg, 12h, N=3",8% (7) % from baseline
same,"cIAP1/Actin in PBMC, median (range)","cIAP-1 [7]; 180 mg, 12h, N=3",5 (4-16) % from baseline
same,"cIAP1/Actin in PBMC, mean (SD)","cIAP-1 [7]; 180 mg, 24h, N=6",9% (10) % from baseline
same,"cIAP1/Actin in PBMC, median (range)","cIAP-1 [7]; 180 mg, 24h, N=6",5 (3-29) % from baseline
same,"cIAP1/Actin in PBMC, mean (SD)","cIAP-1 [7]; 180 mg, 99h, N=6",2% (2) % from baseline
same,"cIAP1/Actin in PBMC, median (range)","cIAP-1 [7]; 180 mg, 99h, N=6",0 (0-5) % from baseline
same,"cIAP1/Actin in PBMC, mean (SD)","cIAP-1 [7]; 260 mg, 1h, N=3",39% (33) % from baseline
same,"cIAP1/Actin in PBMC, median (range)","cIAP-1 [7]; 260 mg, 1h, N=3",44 (4-70) % from baseline
same,"cIAP1/Actin in PBMC, mean (SD)","cIAP-1 [7]; 260 mg, 3h, N=3",45% (50) % from baseline
same,"cIAP1/Actin in PBMC, median (range)","cIAP-1 [7]; 260 mg, 3h, N=3",24 (9-103) % from baseline
same,"cIAP1/Actin in PBMC, mean (SD)","cIAP-1 [7]; 260 mg, 6h, N=3",9% (4) % from baseline
same,"cIAP1/Actin in PBMC, median (range)","cIAP-1 [7]; 260 mg, 6h, N=3",8 (5-13) % from baseline
same,"cIAP1/Actin in PBMC, mean (SD)","cIAP-1 [7]; 260 mg, 12h, N=2",14% (5) % from baseline
same,"cIAP1/Actin in PBMC, median (range)","cIAP-1 [7]; 260 mg, 12h, N=2",14 (10-17) % from baseline
same,"cIAP1/Actin in PBMC, mean (SD)","cIAP-1 [7]; 260 mg, 24h, N=3",9% (7) % from baseline
same,"cIAP1/Actin in PBMC, median (range)","cIAP-1 [7]; 260 mg, 24h, N=3",6 (5-16) % from baseline
same,"cIAP1/Actin in PBMC, mean (SD)","cIAP-1 [7]; 260 mg, 99h, N=3",6% (3) % from baseline
same,"cIAP1/Actin in PBMC, median (range)","cIAP-1 [7]; 260 mg, 99h, N=3",6 (3-8) % from baseline
same,"cIAP1/Actin in PBMC, mean (SD)","cIAP-1 [7]; 400 mg, 1h, N=1",14% (0) % from baseline
same,"cIAP1/Actin in PBMC, median (range)","cIAP-1 [7]; 400 mg, 1h, N=1",14 (14-14) % from baseline
same,"cIAP1/Actin in PBMC, mean (SD)","cIAP-1 [7]; 400 mg, 3h, N=2",4% (2) % from baseline
same,"cIAP1/Actin in PBMC, median (range)","cIAP-1 [7]; 400 mg, 3h, N=2",4 (3-6) % from baseline
same,"cIAP1/Actin in PBMC, mean (SD)","cIAP-1 [7]; 400 mg, 6h, N=2",6% (4) % from baseline
same,"cIAP1/Actin in PBMC, median (range)","cIAP-1 [7]; 400 mg, 6h, N=2",6 (2-9) % from baseline
same,"cIAP1/Actin in PBMC, mean (SD)","cIAP-1 [7]; 400 mg, 24h, N=2",19% (26) % from baseline
same,"cIAP1/Actin in PBMC, median (range)","cIAP-1 [7]; 400 mg, 24h, N=2",19 (0-37) % from baseline
same,"cIAP1/Actin in PBMC, mean (SD)","cIAP-1 [7]; 400 mg, 99h, N=2",28% (31) % from baseline
same,"cIAP1/Actin in PBMC, median (range)","cIAP-1 [7]; 400 mg, 99h, N=2",28 (6-51) % from baseline
same,"cIAP1/Actin in PBMC, mean (SD)","cIAP-1 [7]; 600 mg, 1h, N=3",27% (9) % from baseline
same,"cIAP1/Actin in PBMC, median (range)","cIAP-1 [7]; 600 mg, 1h, N=3",25 (20-38) % from baseline
same,"cIAP1/Actin in PBMC, mean (SD)","cIAP-1 [7]; 600 mg, 3h, N=3",24% (11) % from baseline
same,"cIAP1/Actin in PBMC, median (range)","cIAP-1 [7]; 600 mg, 3h, N=3",18 (17-36) % from baseline
same,"cIAP1/Actin in PBMC, mean (SD)","cIAP-1 [7]; 600 mg, 6h, N=3",20% (11) % from baseline
same,"cIAP1/Actin in PBMC, median (range)","cIAP-1 [7]; 600 mg, 6h, N=3",17 (11-33) % from baseline
same,"cIAP1/Actin in PBMC, mean (SD)","cIAP-1 [7]; 600 mg, 12h, N=1",36% (0) % from baseline
same,"cIAP1/Actin in PBMC, median (range)","cIAP-1 [7]; 600 mg, 12h, N=1",36 (36-36) % from baseline
same,"cIAP1/Actin in PBMC, mean (SD)","cIAP-1 [7]; 600 mg, 24h, N=3",29% (36) % from baseline
same,"cIAP1/Actin in PBMC, median (range)","cIAP-1 [7]; 600 mg, 24h, N=3",14 (3-70) % from baseline
same,"cIAP1/Actin in PBMC, mean (SD)","cIAP-1 [7]; 600 mg, 99h, N=2",14% (19) % from baseline
same,"cIAP1/Actin in PBMC, median (range)","cIAP-1 [7]; 600 mg, 99h, N=2",14 (0-28) % from baseline
same,"cIAP1/Actin in PBMC, mean (SD)","cIAP-1 [7]; 900 mg, 1h, N=5",11% (8) % from baseline
same,"cIAP1/Actin in PBMC, median (range)","cIAP-1 [7]; 900 mg, 1h, N=5",9 (2-24) % from baseline
same,"cIAP1/Actin in PBMC, mean (SD)","cIAP-1 [7]; 900 mg, 3h, N=4",15% (23) % from baseline
same,"cIAP1/Actin in PBMC, median (range)","cIAP-1 [7]; 900 mg, 3h, N=4",3 (3-49) % from baseline
same,"cIAP1/Actin in PBMC, mean (SD)","cIAP-1 [7]; 900 mg, 6h, N=4",14% (13) % from baseline
same,"cIAP1/Actin in PBMC, median (range)","cIAP-1 [7]; 900 mg, 6h, N=4",11 (1-32) % from baseline
same,"cIAP1/Actin in PBMC, mean (SD)","cIAP-1 [7]; 900 mg, 12h, N=2",9% (2) % from baseline
same,"cIAP1/Actin in PBMC, median (range)","cIAP-1 [7]; 900 mg, 12h, N=2",9 (7-10) % from baseline
same,"cIAP1/Actin in PBMC, mean (SD)","cIAP-1 [7]; 900 mg, 24h, N=4",11% (18) % from baseline
same,"cIAP1/Actin in PBMC, median (range)","cIAP-1 [7]; 900 mg, 24h, N=4",3 (0-38) % from baseline
same,"cIAP1/Actin in PBMC, mean (SD)","cIAP-1 [7]; 900 mg, 99h, N=4",7% (6) % from baseline
same,"cIAP1/Actin in PBMC, median (range)","cIAP-1 [7]; 900 mg, 99h, N=4",8 (0-14) % from baseline
same,cIAP1 in PBMCs (Western blot),"cIAP-1 [7]; patients with detectable cIAP1, doses above 80 mg",decreased; also recorded: rapid and persistent cIAP1 degradation
same,Apoptosis,xenograft tumors,apoptosis in xenograft tumors
same,No observable adverse event level (NOAEL),[8],1 mg/kg
same,Oral bioavailability,[9],good

# Source: article PMC4365270 (Cancer Chemotherapy and Pharmacology, 2015)
